A word on the EC50: it is the concentration that produces a half-maximal response. What is called EC90 is the concentration needed for an effect of 90%.

Data on one molecule can be found in article PMC7392643, “Antibiotic fidaxomicin is an RdRp inhibitor as a potential new therapeutic agent against Zika virus” (BMC Medicine, 2020).

Series [1] deals with T1, ZIKV NS5 full-length protein (Zika virus, UniProt A0A024B7W1).
T1 construct: NS5 (amino acids 1 to 903); His tag (8x histidine) (N); made in house; host or cells: Escherichia coli (Rosetta)
T1 sequence (A0A024B7W1 2521-3423): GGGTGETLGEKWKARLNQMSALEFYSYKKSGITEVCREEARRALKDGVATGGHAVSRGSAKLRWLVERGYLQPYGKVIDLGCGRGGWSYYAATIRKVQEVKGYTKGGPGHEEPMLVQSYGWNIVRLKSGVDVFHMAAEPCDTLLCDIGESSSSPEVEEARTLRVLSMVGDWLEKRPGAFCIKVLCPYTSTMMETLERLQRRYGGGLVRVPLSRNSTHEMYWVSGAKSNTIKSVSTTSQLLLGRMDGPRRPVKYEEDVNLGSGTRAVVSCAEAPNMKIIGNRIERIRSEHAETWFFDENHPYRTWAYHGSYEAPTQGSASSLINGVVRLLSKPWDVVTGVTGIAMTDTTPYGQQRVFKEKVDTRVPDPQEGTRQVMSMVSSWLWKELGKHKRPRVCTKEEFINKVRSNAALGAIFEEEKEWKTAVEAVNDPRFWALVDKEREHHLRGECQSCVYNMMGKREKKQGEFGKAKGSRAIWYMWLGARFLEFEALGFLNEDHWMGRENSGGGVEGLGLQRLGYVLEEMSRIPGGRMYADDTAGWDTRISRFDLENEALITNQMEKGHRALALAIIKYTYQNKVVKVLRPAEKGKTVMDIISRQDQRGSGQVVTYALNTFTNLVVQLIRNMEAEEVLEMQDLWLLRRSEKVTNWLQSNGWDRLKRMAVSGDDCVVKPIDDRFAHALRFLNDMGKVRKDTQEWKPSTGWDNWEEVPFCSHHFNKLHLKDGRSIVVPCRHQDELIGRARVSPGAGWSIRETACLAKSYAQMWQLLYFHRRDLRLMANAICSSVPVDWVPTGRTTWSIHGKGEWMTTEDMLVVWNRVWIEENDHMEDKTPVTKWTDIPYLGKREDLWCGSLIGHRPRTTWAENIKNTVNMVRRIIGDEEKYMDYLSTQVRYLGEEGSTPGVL
Kind of series: SPR (BIAcore) binding to ZIKV NS5 full-length protein. The following applies: qualitative. The procedure: (§1) The cDNA fragment of ZIKV (ZG-01 strain) NS5 (amino acids 1 to 903), RdRp (amino acids 272 to 903), or DENV2 NS5 (amino acids 1 to 900) containing an N-terminal His tag sequence was cloned into a pET-30a-mutant vector. For protein expression, the plasmids were transformed into Rosetta™ competent cells (TIANGEN BIOTECH Co., Ltd., Beijing, China), respectively. […] Mass spectrometry was performed by Shanghai Applied Protein Technology Co. Ltd. (Shanghai, China). The concentration of a targeted protein was measured by SDS-PAGE using BSA (Sigma, St. Louis, MO) as a standard.
Surface plasmon resonance (SPR) experiments were performed in a BIAcore T100 device (BIAcore Inc., Uppsala, Sweden) using CM5 sensor chips (General Electric Company, GE) according to the protocol provided by the manufacturer. Briefly, recombinant ZIKV NS5 protein, RdRp protein, or DENV2 NS5 protein was immobilized on a CM5 chip, respectively. Different concentrations of fidaxomicin or ribavirin were injected at a flow rate of 30 μL/min for 3 min. Subsequently, data were collected for a 3-min association followed by a 20-min dissociation. The chip was regenerated by injecting 10 μL of 15 mM NaOH for 20 s. […] The binding kinetics was analyzed with the software BIAevaluation version 3.1 using a 1:1 Langmuir binding model. The Kd was calculated as previously described.
On the technique in general: SPR reads the build-up and loss of mass on a sensor chip optically.

The subject of a further series is ZIKV MR766 strain. Kind of series: In vitro antiviral assay, plaque assay, ZIKV MR766. The format is cell-based. The note with it: Zika virus, 48 h.
The next series is described as follows: in vitro. The note with it: African green monkey.
For the next series, the target named is T2, ZIKV RdRp protein (Zika virus, UniProt A0A024B7W1).
T2 construct: RdRp (amino acids 272 to 903); His tag (8x histidine) (N); made in house; host or cells: Escherichia coli (Rosetta)
T2 sequence (A0A024B7W1 2792-3423): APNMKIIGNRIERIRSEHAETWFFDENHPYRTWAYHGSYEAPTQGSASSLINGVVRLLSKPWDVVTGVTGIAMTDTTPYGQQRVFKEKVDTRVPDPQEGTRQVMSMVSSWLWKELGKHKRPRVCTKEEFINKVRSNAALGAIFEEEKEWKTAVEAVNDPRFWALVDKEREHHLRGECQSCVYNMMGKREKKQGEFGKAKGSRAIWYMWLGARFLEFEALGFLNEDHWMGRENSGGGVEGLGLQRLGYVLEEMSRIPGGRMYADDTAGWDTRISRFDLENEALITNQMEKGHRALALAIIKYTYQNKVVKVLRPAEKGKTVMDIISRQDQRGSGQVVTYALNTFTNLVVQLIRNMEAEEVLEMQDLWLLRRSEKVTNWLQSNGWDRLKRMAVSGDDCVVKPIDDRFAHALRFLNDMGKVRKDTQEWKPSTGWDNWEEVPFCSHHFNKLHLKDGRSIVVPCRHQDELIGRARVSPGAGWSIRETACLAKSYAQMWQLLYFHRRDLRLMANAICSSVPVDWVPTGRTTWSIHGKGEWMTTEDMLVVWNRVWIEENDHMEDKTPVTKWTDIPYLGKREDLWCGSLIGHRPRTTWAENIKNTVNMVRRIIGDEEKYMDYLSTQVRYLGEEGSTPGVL
Briefly: SPR (BIAcore) binding to ZIKV RdRp protein. The note with it: qualitative. Here is the method: as §1
Surface plasmon resonance (SPR) experiments were performed in a BIAcore T100 device (BIAcore Inc., Uppsala, Sweden) using CM5 sensor chips (General Electric Company, GE) according to the protocol provided by the manufacturer. Briefly, recombinant ZIKV NS5 protein, RdRp protein, or DENV2 NS5 protein was immobilized on a CM5 chip, respectively. Different concentrations of fidaxomicin or ribavirin were injected at a flow rate of 30 μL/min for 3 min. Subsequently, data were collected for a 3-min association followed by a 20-min dissociation. The chip was regenerated by injecting 10 μL of 15 mM NaOH for 20 s. All procedures were run in 1% DMSO PBS-P20 (GE) as a running buffer. The binding kinetics was analyzed with the software BIAevaluation version 3.1 using a 1:1 Langmuir binding model. The Kd was calculated as previously described.

The subject of the next series is ZIKV ZG-01 strain. Kind of series: In vitro antiviral assay, plaque assay, ZIKV ZG-01. The following applies: for EC50 / EC90: Zika virus. Here is the method:
The anti-ZIKV activity of fidaxomicin and ribavirin was evaluated in vitro by plaque assay. Various cell lines, including SNB19 (6 × 10^4/well, 10% FBS DMEM), A172 (7 × 10^4/well, 10% FBS DMEM), Vero (6 × 10^4/well 10% FBS DMEM), Huh7 (7 × 10^4/well, 10% FBS DMEM), HUVECs (7 × 10^4/well, 15% FBS M199 medium supplemented with 2 mM L-glutamine, 0.02 mg/mL endothelial cell growth supplement, and 0.05 mg/mL heparin), and A549 (6 × 10^4/well, 5% FBS DMEM), were plated in 12-well plates and allowed to attach overnight, followed by infection with ZIKV (ZG-01 strain or MR766 strain, respectively, at indicated MOI) in the presence of different concentrations of fidaxomicin, ribavirin, or vehicle control for 1 h, followed by two washes with 1 × PBS and incubated with fresh medium (without virus) consisting of corresponding concentrations of the compounds for further 48 h. The cell supernatants were collected to quantify ZIKV infection by plaque assay as previously described or by RT-qPCR. […] The anti-DENV activity of fidaxomicin was evaluated in vitro by RT-qPCR.

Each structure is given as a SMILES string.

Procedure for ZIKV MR766 strain: Various cell lines, including SNB19 (6 × 10^4/well, 10% FBS DMEM), A172 (7 × 10^4/well, 10% FBS DMEM), Vero (6 × 10^4/well 10% FBS DMEM), Huh7 (7 × 10^4/well, 10% FBS DMEM), HUVECs (7 × 10^4/well, 15% FBS M199 medium supplemented with 2 mM L-glutamine, 0.02 mg/mL endothelial cell growth supplement, and 0.05 mg/mL heparin), and A549 (6 × 10^4/well, 5% FBS DMEM), were plated in 12-well plates and allowed to attach overnight, followed by infection with ZIKV (ZG-01 strain or MR766 strain, respectively, at indicated MOI) in the presence of different concentrations of fidaxomicin, ribavirin, or vehicle control for 1 h, followed by two washes with 1 × PBS and incubated with fresh medium (without virus) consisting of corresponding concentrations of the compounds for further 48 h. The cell supernatants were collected to quantify ZIKV infection by plaque assay as previously described [47] or by RT-qPCR.

On to `NC(=O)c1ncn([C@@H]2O[C@H](CO)[C@@H](O)[C@H]2O)n1` [Ribavirin, ribavirin], for which the “binding to ZIKV NS5 protein (SPR)” value in series [1] is on record as “very weak interaction”. Also, the EC50 with ZIKV MR766 strain (A549 cells) was 35.2 ± 5.2 µM; in the series with ZIKV MR766 strain (Huh-7, Huh7 cells) it was 15.6 ± 2.1 µM; in the series on ZIKV MR766 strain (SNB-19, SNB19 cells), > 100 µM; with ZIKV MR766 strain (Vero cells) it was > 100 µM; with ZIKV ZG-01 strain (A549, 48 h) it was 33.2 ± 3.4 µM; with ZIKV ZG-01 strain (Huh-7, 48 h), 12.7 ± 2.3 µM. Further, the EC50 is > 100 µM in the series on ZIKV ZG-01 strain (SNB-19, 48 h) and > 100 µM in the series on ZIKV ZG-01 strain (Vero, 48 h). Also, the EC90 in the series on ZIKV MR766 strain (A549 cells) is 74.6 ± 8.5 µM; with ZIKV MR766 strain (Huh-7, Huh7 cells) it was 58.3 ± 3.2 µM; with ZIKV MR766 strain (SNB-19, SNB19 cells), > 100 µM; in the series on ZIKV MR766 strain (Vero cells), > 100 µM; in the series on ZIKV ZG-01 strain (A549, 48 h), 71.6 ± 6.2 µM; in the series on ZIKV ZG-01 strain (Huh-7, 48 h), 54.3 ± 3.5 µM. The EC90 with ZIKV ZG-01 strain (SNB-19, 48 h) was > 100 µM; in the series on ZIKV ZG-01 strain (Vero, 48 h) it was > 100 µM. In “in vitro”, this molecule showed a CC50 at 48 h of 486 ± 20.1 µM. For the same molecule, the “binding to ZIKV RdRp protein (SPR)” value on ZIKV RdRp protein was “weak”. Besides, the “efficacy against ZIKV infection under non-cytotoxic concentration” value in the series on ZIKV ZG-01 strain (SNB19 cells) is on record as “far less effective”.
